Data published in US10647743B2, “Method of making biologically active alpha-beta peptides” (priority 2008, dated 2020).
Like-named read-outs stand apart in the source and are kept apart here. *1 amine or outer side, *2 acyl side, *3 side chain or, on linkers, in order; H or OH if unused. Where a SMILES comes first, the peptide text is derived from it. [ ]: non-standard residue; d: D form. ξ: configuration not given here. ξ(4-Aminopyrrolidine-3-CO) = O=C(C1CNCC1N[*:1])[*:2]; β3hT = C[C@@H](O)[C@H](N)CC(=O)O; β3hE = N[C@@H](CCC(=O)O)CC(=O)O; X1 = O=C(C1CCCC1N[*:1])[*:2]

What was measured:
gp41-5 = gp41-5 (Human immunodeficiency virus type 1 group M subtype B, UniProt P04578, C598G/DEL582-595/DEL601-626/T627G/W596S); assay: biochemical; type: binding, HIV; details: for Ki: competition FP
NHR α-peptide 1 = molecular target: T1, NHR α-peptide 1 (Human immunodeficiency virus type 1 group M subtype B, UniProt P04578); assay: CD thermal unfolding of 1:1 NHR + CHR peptide mixtures; type: physicochemical, HIV; details: Table 2; CD at 222 nm, 1:1 mixture with NHR α-peptide 1, PBS, 20 μM total peptide
T1 construct: made in house; host or cells: chemical synthesis (Fmoc solid phase)
Experimental: The interactions of select α/β-peptides with the gp41 NHR domain were further investigated by circular dichroism (CD) spectroscopy. The CD spectra of 3, 4, 5, 8, 9 and were measured, both alone (see FIG. 5A) and in a 1:1 mixture with NHR α-peptide 1 (see FIGS. 3A, 3B, 3C, and 3D, respectively). See also FIGS. 5B and 5C for the superimposed spectra. […] The magnitude of the CD signatures among the well-folded mixtures (1+3, 1+5 and 1+10, FIGS. 3A, 3C, and 3D, respectively) are similar, but the ratio of intensities at 208 and 222 nm changes as a function of β-residue content (more β-residues tracks with a less intense peak at 222 nm).
The interactions of CHR α-peptide 3 and α/β-peptide analogues 4, 5, 8 and 10 with a peptide derived from the gp41 NHR domain (1) were investigated by circular dichroism (CD) spectroscopy. […] The magnitude of the CD signatures among the well-folded mixtures (1+3, 1+5, 1+8 and 1+10) are similar, but the ratio of intensities at 208 and 222 nm changes as a function of β-residue content (higher β-residue content is correlated with a less intense peak at 222 nm). This trend is consistent with previous studies on helical oligomers containing mixed α/β backbones.
Circular Dichroism Spectroscopy. Circular dichroism measurements were carried out on an Aviv 202SF Circular Dichroism Spectrophotometer. Samples of each peptide were prepared at 20 μM concentration in PBS. Solutions of 1:1 peptide mixtures were prepared by mixing equal volumes from the same 20 μM stock solutions used for individual peptide measurements. Spectra were recorded in a 1 mm cell with a step size of 1 nm and an averaging time of 5 sec. All spectra are background corrected against buffer measured in the same cell. Thermal melts were carried out in 5-degree increments with an equilibration time of 10 min between each temperature change. Thermal unfolding data were fit to a simple two state folding model Shortle, D.; Meeker, A. K.; Freire, E. Biochemistry 1988, 27, 4761-4768) using GraphPad Prism.

[1] = molecular target: T2, envelope glycoprotein of the HIV-1 clone HXB2 (Human immunodeficiency virus type 1 group M subtype B, UniProt P04578); assay: cell-cell fusion assay; type: cell-based
T2 construct: One cell line expresses HIV-1 Env (processed by cellular proteases to generate gp120+gp41); expressed in transfected cells; host or cells: CHO cells expressing HXB2 env (and Tat); U373-MAGI target cells

HIV-1 NL4-3 = details: read-out: Inhibition of HIV-1 infectivity, IC50 (nM), X4 strains, NL4-3; TZM-bl cells; mean ± S.E.M., three experiments
HIV-1 HC4 = details: read-out: Inhibition of HIV-1 infectivity, IC50 (nM), X4 strains, HC4; TZM-bl cells; mean ± S.E.M., three experiments
HIV-1 CC 1/85 = details: read-out: Inhibition of HIV-1 infectivity, IC50 (nM), R5 strains, CC 1/85; TZM-bl cells; mean ± S.E.M., three experiments
HIV-1 DJ258 = details: read-out: Inhibition of HIV-1 infectivity, IC50 (nM), R5 strains, DJ258; TZM-bl cells; mean ± S.E.M., three experiments
proteinase K [2] = molecular target: T3, proteinase K (Parengyodontium album, UniProt P06873); details: for fold improvement in stability to proteinase K relative to α-peptide 3: relative to 3
proteinase K [3] = molecular target: T3, proteinase K; assay: in vitro; details: for half-life at 20 μM: proteinase K solution in TBS
[4] = Table 4, read-out: gp41-5 binding affinity by FP Ki
[5] = Tritirachium album (source organism of proteinase K)

T3 sequence (P06873 106-384): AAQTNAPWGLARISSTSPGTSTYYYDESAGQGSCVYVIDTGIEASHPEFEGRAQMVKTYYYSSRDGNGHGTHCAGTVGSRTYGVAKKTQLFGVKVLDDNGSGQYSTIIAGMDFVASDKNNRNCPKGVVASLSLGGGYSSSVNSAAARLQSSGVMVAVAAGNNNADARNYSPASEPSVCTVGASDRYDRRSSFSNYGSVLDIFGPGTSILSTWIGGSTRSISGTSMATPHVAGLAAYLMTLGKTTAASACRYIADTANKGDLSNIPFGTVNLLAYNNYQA

Row | Compound | Ki (gp41-5; Table 2, read-out: gp41-5 Ki) | Ki (gp41-5; [4]) | NHR + CHR Tm (° C.) (NHR α-peptide 1) | IC50 [1] | IC50 (HIV-1 NL4-3) | IC50 (HIV-1 HC4) | IC50 (HIV-1 CC 1/85) | IC50 (HIV-1 DJ258) | fold improvement in stability to proteinase K relative to α-peptide 3 (proteinase K [2]) | half-life at 20 μM (proteinase K [3]; [5]) | half-life at 20 μM (proteinase K [3]) | Ki (gp41-5; read-out: Ki for gp41-5) | degradation by proteinase K (proteinase K [2]; under the assay conditions) | fold difference in affinity for gp41-5 relative to 5 (gp41-5) | fold higher affinity for gp41-5 relative to 4 (gp41-5; relative to 4) | fold improvement of Ki relative to 9 (gp41-5; relative to 9) | half-life (proteinase K [3])
1 | CC[C@H](C)[C@H](NC(=O)[C@H](C)NC(=O)[C@H](CCCNC(=N)N)NC(=O)[C@H](CC(=O)O)NC(=O)[C@H](Cc1c[nH]c2ccccc12)NC(=O)[C@H](C)NC(=O)[C@H](CCC(=O)O)NC(=O)[C@H](Cc1c[nH]c2ccccc12)NC(=O)[C@@H](NC(=O)[C@@H](NC(C)=O)[C@@H](C)O)[C@@H](C)O)C(=O)N[C@@H](C)C(=O)N[C@@H](CCC(=O)O)C(=O)N[C@@H](Cc1ccc(O)cc1)C(=O)N[C@@H](C)C(=O)N[C@@H](C)C(=O)N[C@@H](CCCNC(=N)N)C(=O)N[C@H](C(=O)N[C@@H](CCC(=O)O)C(=O)N[C@@H](C)C(=O)N[C@@H](CC(C)C)C(=O)N[C@H](C(=O)N[C@@H](CCCNC(=N)N)CC(=O)N[C@@H](C)C(=O)N[C@@H](C)C(=O)N[C@@H](CCC(N)=O)C(=O)N[C@@H](CCC(=O)O)CC(=O)N[C@@H](CCC(N)=O)C(=O)N[C@@H](CCC(N)=O)C(=O)N[C@@H](CCC(=O)O)CC(=O)N[C@@H](CCCCN)C(=O)N[C@@H](CC(N)=O)C(=O)N[C@@H](CCC(=O)O)C(=O)N[C@@H](C)CC(=O)N[C@@H](C)C(=O)N[C@@H](CC(C)C)C(=O)N[C@@H](CCCNC(=N)N)CC(=O)N[C@@H](CCC(=O)O)C(=O)N[C@@H](CC(C)C)C(N)=O)[C@@H](C)CC)[C@@H](C)CC [compound 5] | 0.2 nM | < 0.2 nM | 69 °C | 7 ± 2 nM | 10 ± 2 nM | 55 ± 8 nM | 270 ± 20 nM | 280 ± 90 nM | – | – | – | – | – | – | – | – | –
2 | CC[C@H](C)[C@H](NC(=O)[C@H](C)NC(=O)C[C@H](CCCNC(=N)N)NC(=O)[C@H](CC(=O)O)NC(=O)[C@H](Cc1c[nH]c2ccccc12)NC(=O)C[C@H](C)NC(=O)[C@H](CCC(=O)O)NC(=O)[C@H](Cc1c[nH]c2ccccc12)NC(=O)[C@@H](NC(=O)C[C@@H](NC(C)=O)[C@@H](C)O)[C@@H](C)O)C(=O)N[C@@H](C)C(=O)N[C@@H](CCC(=O)O)CC(=O)N[C@@H](Cc1ccc(O)cc1)C(=O)N[C@@H](C)C(=O)N[C@@H](C)CC(=O)N[C@@H](CCCNC(=N)N)C(=O)N[C@H](C(=O)N[C@@H](CCC(=O)O)C(=O)N[C@@H](C)CC(=O)N[C@@H](CC(C)C)C(=O)N[C@H](C(=O)N[C@@H](CCCNC(=N)N)CC(=O)N[C@@H](C)C(=O)N[C@@H](C)C(=O)N[C@@H](CCC(N)=O)C(=O)N[C@@H](CCC(=O)O)CC(=O)N[C@@H](CCC(N)=O)C(=O)N[C@@H](CCC(N)=O)C(=O)N[C@@H](CCC(=O)O)CC(=O)N[C@@H](CCCCN)C(=O)N[C@@H](CC(N)=O)C(=O)N[C@@H](CCC(=O)O)C(=O)N[C@@H](C)CC(=O)N[C@@H](C)C(=O)N[C@@H](CC(C)C)C(=O)N[C@@H](CCCNC(=N)N)CC(=O)N[C@@H](CCC(=O)O)C(=O)N[C@@H](CC(C)C)C(N)=O)[C@@H](C)CC)[C@@H](C)CC [compound 4] | 3800 nM | – | – | 390 ± 40 nM | 700 ± 60 nM | 590 ± 100 nM | 1300 ± 100 nM | 960 ± 200 nM | 20 fold | 14 min | 14 min | – | – | – | – | – | –
3 | CC[C@H](C)[C@H](NC(=O)[C@H](C)NC(=O)[C@H](CCCNC(=N)N)NC(=O)[C@H](CC(=O)O)NC(=O)[C@H](Cc1c[nH]c2ccccc12)NC(=O)[C@H](C)NC(=O)[C@H](CCC(=O)O)NC(=O)[C@H](Cc1c[nH]c2ccccc12)NC(=O)[C@@H](NC(=O)[C@@H](NC(C)=O)[C@@H](C)O)[C@@H](C)O)C(=O)N[C@@H](C)C(=O)N[C@@H](CCC(=O)O)C(=O)N[C@@H](Cc1ccc(O)cc1)C(=O)N[C@@H](C)C(=O)N[C@@H](C)C(=O)N[C@@H](CCCNC(=N)N)C(=O)N[C@H](C(=O)N[C@@H](CCC(=O)O)C(=O)N[C@@H](C)C(=O)N[C@@H](CC(C)C)C(=O)N[C@H](C(=O)N[C@@H](CCCNC(=N)N)C(=O)N[C@@H](C)C(=O)N[C@@H](C)C(=O)N[C@@H](CCC(N)=O)C(=O)N[C@@H](CCC(=O)O)C(=O)N[C@@H](CCC(N)=O)C(=O)N[C@@H](CCC(N)=O)C(=O)N[C@@H](CCC(=O)O)C(=O)N[C@@H](CCCCN)C(=O)N[C@@H](CC(N)=O)C(=O)N[C@@H](CCC(=O)O)C(=O)N[C@@H](C)C(=O)N[C@@H](C)C(=O)N[C@@H](CC(C)C)C(=O)N[C@@H](CCCNC(=N)N)C(=O)N[C@@H](CCC(=O)O)C(=O)N[C@@H](CC(C)C)C(N)=O)[C@@H](C)CC)[C@@H](C)CC [compound 3, reference compound] | ≤ 0.2 nM | < 0.2 nM | 77 °C | 9 ± 3 nM | 5 ± 0.6 nM | 27 ± 4 nM | 140 ± 20 nM | 58 ± 6 nM | – | 0.7 min | 0.7 min | < 0.2 nM | completely degraded within minutes | – | – | – | –
4 | CC[C@H](C)[C@H](NC(=O)[C@H](C)NC(=O)C1CNCC1NC(=O)[C@H](CC(=O)O)NC(=O)[C@H](Cc1c[nH]c2ccccc12)NC(=O)C1CCCC1NC(=O)[C@H](CCC(=O)O)NC(=O)[C@H](Cc1c[nH]c2ccccc12)NC(=O)[C@@H](NC(=O)C[C@@H](NC(C)=O)[C@@H](C)O)[C@@H](C)O)C(=O)N[C@@H](C)C(=O)N[C@@H](CCC(=O)O)CC(=O)N[C@@H](Cc1ccc(O)cc1)C(=O)N[C@@H](C)C(=O)NC1CCCC1C(=O)N[C@@H](CCCNC(=N)N)C(=O)N[C@H](C(=O)N[C@@H](CCC(=O)O)C(=O)NC1CCCC1C(=O)N[C@@H](CC(C)C)C(=O)N[C@H](C(=O)NC1CNCC1C(=O)N[C@@H](C)C(=O)N[C@@H](C)C(=O)N[C@@H](CCC(N)=O)C(=O)N[C@@H](CCC(=O)O)CC(=O)N[C@@H](CCC(N)=O)C(=O)N[C@@H](CCC(N)=O)C(=O)N[C@@H](CCC(=O)O)CC(=O)N[C@@H](CCCCN)C(=O)N[C@@H](CC(N)=O)C(=O)N[C@@H](CCC(=O)O)C(=O)NC1CCCC1C(=O)N[C@@H](C)C(=O)N[C@@H](CC(C)C)C(=O)NC1CNCC1C(=O)N[C@@H](CCC(=O)O)C(=O)N[C@@H](CC(C)C)C(N)=O)[C@@H](C)CC)[C@@H](C)CC (stereo partly drawn) [compound 10, Ac-TTWEXWDZAIAEYAXRIEXLIZAAQEQQEKNEXALZEL-NH2] (Ac-[β3hT]TWE[X1]WD[ξ(4-Aminopyrrolidine-3-CO)]AIA[β3hE]YA[X1]RIE[X1]LI[ξ(4-Aminopyrrolidine-3-CO)]AAQ[β3hE]QQ[β3hE]KNE[X1]AL[ξ(4-Aminopyrrolidine-3-CO)]EL-NH2) | – | – | 55 °C | – | – | – | – | – | 280 fold | – | – | – | – | > 45 fold | ~380 fold | ~10 fold | 200 min
